Results taken from PMC9005681, “Use of AD Informer Set compounds to explore validity of novel targets in Alzheimer's disease pathology” (Alzheimer's & Dementia : Translational Research & Clinical …, 2022).
Values joined by “and” are separate entries in the source; they are usually repeats but may differ in a detail not shown here. Identical values can stand only once.

Experiments:
Assay in all cases: PDSP GPCR panel primary binding assays at 10 μM
Settings in all cases: primary assay
[1] = biological target: T1, cloned human or rodent CNS receptors, channels, and transporters (PDSP panel) (Homo sapiens, UniProt P21728)
T1 construct: expressed in transfected cells
T1 sequence (P21728 whole entry): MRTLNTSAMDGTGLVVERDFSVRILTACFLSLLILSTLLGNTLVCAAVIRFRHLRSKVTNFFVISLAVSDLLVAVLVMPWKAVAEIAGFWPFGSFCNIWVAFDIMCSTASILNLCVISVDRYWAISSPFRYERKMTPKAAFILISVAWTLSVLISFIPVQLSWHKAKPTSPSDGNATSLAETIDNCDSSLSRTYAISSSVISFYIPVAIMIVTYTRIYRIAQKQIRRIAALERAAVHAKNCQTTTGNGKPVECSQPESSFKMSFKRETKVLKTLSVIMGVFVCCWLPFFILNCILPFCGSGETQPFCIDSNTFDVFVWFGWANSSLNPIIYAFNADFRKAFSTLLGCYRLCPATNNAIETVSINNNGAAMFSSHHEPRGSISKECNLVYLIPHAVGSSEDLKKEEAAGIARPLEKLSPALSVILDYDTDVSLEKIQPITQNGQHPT
Protocol: (§1) GPCR panel: Screening against the receptors within the PDSP panel offers an assessment of off-target pharmacological activity at cloned human or rodent CNS receptors, channels, and transporters that could confound CNS-related phenotypes. A total of 46–47 primary binding assays were run in quadruplicate on these compounds at 10 μM, with follow-up secondary binding assays in 11-point dose-response in triplicate for select compounds versus select receptors. Secondary binding assays were executed for all receptors where test compound displaced an average of >50% of radio-labeled standard ligand. As an exception, no secondary assays were carried out for H3, PBR, or GABAA. […]

[2] = biological target: T2, cloned human or rodent CNS receptors, channels, and transporters (PDSP panel) (Homo sapiens, UniProt P23975)
T2 construct: expressed in transfected cells
T2 sequence (P23975 whole entry): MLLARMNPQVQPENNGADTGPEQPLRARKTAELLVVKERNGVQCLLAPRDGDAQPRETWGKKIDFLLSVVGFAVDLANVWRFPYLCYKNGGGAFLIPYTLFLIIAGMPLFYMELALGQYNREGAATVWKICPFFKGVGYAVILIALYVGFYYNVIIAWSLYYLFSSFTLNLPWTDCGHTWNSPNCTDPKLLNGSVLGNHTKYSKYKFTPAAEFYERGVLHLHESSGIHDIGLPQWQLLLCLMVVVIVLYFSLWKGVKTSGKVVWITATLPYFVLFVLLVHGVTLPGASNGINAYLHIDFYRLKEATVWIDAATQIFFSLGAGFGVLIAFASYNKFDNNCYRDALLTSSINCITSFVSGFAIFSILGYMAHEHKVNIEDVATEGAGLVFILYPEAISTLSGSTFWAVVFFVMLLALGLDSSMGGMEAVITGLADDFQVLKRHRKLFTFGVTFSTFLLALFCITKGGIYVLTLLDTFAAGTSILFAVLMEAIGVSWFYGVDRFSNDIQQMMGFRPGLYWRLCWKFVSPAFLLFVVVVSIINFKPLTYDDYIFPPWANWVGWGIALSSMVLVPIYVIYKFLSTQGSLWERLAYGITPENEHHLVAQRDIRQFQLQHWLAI
Protocol: as §1

[3] = biological target: T3, cloned human or rodent CNS receptors, channels, and transporters (PDSP panel) (Homo sapiens, UniProt P11229)
T3 construct: expressed in transfected cells
T3 sequence (P11229 1-460): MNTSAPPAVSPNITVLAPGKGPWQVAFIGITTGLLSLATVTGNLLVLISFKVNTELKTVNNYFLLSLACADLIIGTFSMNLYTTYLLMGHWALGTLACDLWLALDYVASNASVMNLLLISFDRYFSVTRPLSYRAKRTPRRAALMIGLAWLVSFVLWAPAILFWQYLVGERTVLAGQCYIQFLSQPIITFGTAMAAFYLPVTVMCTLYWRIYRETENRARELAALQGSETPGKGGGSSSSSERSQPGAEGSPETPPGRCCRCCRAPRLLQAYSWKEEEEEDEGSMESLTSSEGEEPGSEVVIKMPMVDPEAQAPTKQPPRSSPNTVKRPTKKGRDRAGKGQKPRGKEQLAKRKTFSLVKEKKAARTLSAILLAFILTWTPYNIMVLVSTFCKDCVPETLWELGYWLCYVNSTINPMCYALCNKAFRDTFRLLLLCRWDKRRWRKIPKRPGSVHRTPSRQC
Protocol: as §1

[4] = biological target: T4, cloned human or rodent CNS receptors, channels, and transporters (PDSP panel) (Homo sapiens, UniProt P47898)
T4 construct: expressed in transfected cells
T4 sequence (P47898 whole entry): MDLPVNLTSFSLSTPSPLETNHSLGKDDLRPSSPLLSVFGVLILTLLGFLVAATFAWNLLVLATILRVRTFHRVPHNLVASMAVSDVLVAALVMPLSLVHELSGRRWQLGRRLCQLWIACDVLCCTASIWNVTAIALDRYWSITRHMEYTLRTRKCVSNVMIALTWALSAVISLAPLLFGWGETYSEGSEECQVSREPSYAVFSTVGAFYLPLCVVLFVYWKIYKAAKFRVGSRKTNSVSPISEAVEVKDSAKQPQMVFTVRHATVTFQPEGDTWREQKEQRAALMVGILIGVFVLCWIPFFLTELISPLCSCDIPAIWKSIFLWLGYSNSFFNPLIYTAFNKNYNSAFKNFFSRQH
Protocol: as §1

[5] = biological target: T5, cloned human or rodent CNS receptors, channels, and transporters (PDSP panel) (Homo sapiens, UniProt P35368)
T5 construct: expressed in transfected cells
T5 sequence (P35368 1-520): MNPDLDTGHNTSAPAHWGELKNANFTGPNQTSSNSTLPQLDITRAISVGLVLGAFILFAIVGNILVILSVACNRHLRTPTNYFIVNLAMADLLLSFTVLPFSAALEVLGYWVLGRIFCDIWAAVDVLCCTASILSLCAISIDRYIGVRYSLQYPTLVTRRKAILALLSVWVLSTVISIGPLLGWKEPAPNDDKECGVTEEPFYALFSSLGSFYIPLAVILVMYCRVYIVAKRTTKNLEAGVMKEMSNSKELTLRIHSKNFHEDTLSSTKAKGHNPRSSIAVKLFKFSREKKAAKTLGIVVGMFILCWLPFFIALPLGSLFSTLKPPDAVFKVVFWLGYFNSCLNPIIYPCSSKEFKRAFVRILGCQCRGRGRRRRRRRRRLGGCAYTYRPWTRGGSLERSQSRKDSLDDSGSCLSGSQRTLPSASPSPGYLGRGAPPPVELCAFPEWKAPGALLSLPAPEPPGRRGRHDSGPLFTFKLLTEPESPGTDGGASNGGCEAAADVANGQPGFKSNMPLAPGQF
Protocol: as §1

[6] = biological target: T6, cloned human or rodent CNS receptors, channels, and transporters (PDSP panel) (Homo sapiens, UniProt P28223)
T6 construct: expressed in transfected cells
T6 sequence (P28223 whole entry): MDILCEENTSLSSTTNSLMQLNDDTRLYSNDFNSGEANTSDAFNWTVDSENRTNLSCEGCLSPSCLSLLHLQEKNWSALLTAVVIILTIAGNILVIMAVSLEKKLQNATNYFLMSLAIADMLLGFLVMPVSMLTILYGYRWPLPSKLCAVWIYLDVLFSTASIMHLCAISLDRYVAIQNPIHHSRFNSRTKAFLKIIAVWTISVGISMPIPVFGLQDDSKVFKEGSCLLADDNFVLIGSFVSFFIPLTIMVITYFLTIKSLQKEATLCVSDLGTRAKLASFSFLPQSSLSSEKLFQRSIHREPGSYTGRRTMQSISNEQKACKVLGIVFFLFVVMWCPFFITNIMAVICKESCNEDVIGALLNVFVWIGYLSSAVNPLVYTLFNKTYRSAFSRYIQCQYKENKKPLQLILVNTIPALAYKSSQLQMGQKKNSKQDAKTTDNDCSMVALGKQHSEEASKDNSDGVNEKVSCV
Protocol: as §1

[7] = biological target: T7, cloned human or rodent CNS receptors, channels, and transporters (PDSP panel) (Homo sapiens, UniProt P25100)
T7 construct: expressed in transfected cells
T7 sequence (P25100 1-572): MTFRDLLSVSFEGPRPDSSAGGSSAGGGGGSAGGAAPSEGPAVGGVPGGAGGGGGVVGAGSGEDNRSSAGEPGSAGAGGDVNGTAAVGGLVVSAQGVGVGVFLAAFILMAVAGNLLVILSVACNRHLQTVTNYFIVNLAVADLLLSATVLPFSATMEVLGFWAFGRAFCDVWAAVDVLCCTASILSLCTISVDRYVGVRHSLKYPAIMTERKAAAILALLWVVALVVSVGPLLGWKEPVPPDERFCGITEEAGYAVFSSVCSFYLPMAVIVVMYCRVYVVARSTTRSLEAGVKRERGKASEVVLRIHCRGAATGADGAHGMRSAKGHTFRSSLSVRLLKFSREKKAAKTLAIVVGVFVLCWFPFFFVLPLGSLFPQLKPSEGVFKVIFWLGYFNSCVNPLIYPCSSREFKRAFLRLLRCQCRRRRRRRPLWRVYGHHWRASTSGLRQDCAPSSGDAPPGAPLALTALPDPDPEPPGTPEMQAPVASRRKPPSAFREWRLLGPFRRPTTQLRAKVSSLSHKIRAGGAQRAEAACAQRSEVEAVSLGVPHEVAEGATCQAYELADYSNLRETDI
Protocol: as §1

Compound: c1cn2cc(-c3ccc4cn[nH]c4c3)nc(Nc3ccc(N4CCOCC4)cc3)c2n1 [UNC10302678A, Entospletinib (GS-9973)]
- Inhibition 1 ([1]; Receptor D1, 10 μM): 2.51%
- Inhibition 2 ([1]; Receptor D1, 10 μM): -3%
- Inhibition 3 ([1]; Receptor D1, 10 μM): -32.95%
- Inhibition 4 ([1]; Receptor D1, 10 μM): 7.37%
- Mean % ([1]; Receptor D1, 10 μM, mean of Inhibition 1-4): -6.52%
- Inhibition 1 ([2]; Receptor NET, 10 μM): -3.87% and -2.7%
- Inhibition 2 ([2]; Receptor NET, 10 μM): -11.22% and -16.36%
- Inhibition 3 ([2]; Receptor NET, 10 μM): -0.44% and -2.13%
- Mean % ([2]; Receptor NET, 10 μM, mean of Inhibition 1-4): 1.02% and -6.36%
- Inhibition 1 ([3]; Receptor M1, 10 μM): 19.66%
- Inhibition 2 ([3]; Receptor M1, 10 μM): -3.67%
- Inhibition 3 ([3]; Receptor M1, 10 μM): -8.18%
- Inhibition 4 ([3]; Receptor M1, 10 μM): 2.73%
- Mean % ([3]; Receptor M1, 10 μM, mean of Inhibition 1-4): 2.64%
- Inhibition 1 ([4]; Receptor 5-HT5A, 10 μM): 7.17%
- Inhibition 2 ([4]; Receptor 5-HT5A, 10 μM): -43.49%
- Inhibition 3 ([4]; Receptor 5-HT5A, 10 μM): -3.12%
- Inhibition 4 ([4]; Receptor 5-HT5A, 10 μM): -6.68%
- Mean % ([4]; Receptor 5-HT5A, 10 μM, mean of Inhibition 1-4): -11.53%
- Inhibition 1 ([5]; Receptor Alpha1B, 10 μM): 3.98%
- Inhibition 2 ([5]; Receptor Alpha1B, 10 μM): -28.67%
- Inhibition 3 ([5]; Receptor Alpha1B, 10 μM): -18.82%
- Inhibition 4 ([5]; Receptor Alpha1B, 10 μM): -2.78%
- Mean % ([5]; Receptor Alpha1B, 10 μM, mean of Inhibition 1-4): -11.57%
- Inhibition 1 ([6]; Receptor 5-HT2A, 10 μM): -1.01%
- Inhibition 2 ([6]; Receptor 5-HT2A, 10 μM): -14.98%
- Inhibition 3 ([6]; Receptor 5-HT2A, 10 μM): -19.59%
- Inhibition 4 ([6]; Receptor 5-HT2A, 10 μM): -10.22%
- Mean % ([6]; Receptor 5-HT2A, 10 μM, mean of Inhibition 1-4): -11.45%
- Inhibition 1 ([7]; Receptor Alpha1D, 10 μM): -9.56%
- Inhibition 2 ([7]; Receptor Alpha1D, 10 μM): -12.54%
- Inhibition 3 ([7]; Receptor Alpha1D, 10 μM): -12.26%
- Inhibition 4 ([7]; Receptor Alpha1D, 10 μM): -10.27%
- Mean % ([7]; Receptor Alpha1D, 10 μM, mean of Inhibition 1-4): -11.16%

Compound: CNc1nc(C)nc(N[C@H]2CCC[C@@H](C(=O)NCc3ccc(C#N)cc3C(F)(F)F)C2)n1 [UNC10302679A, GSK2256294A]
- Mean % ([1]; D1, mean inhibition): 9.96%
- Inhibition 1 ([1]; D1, replicate 1): 12.39%
- Inhibition 2 ([1]; D1, replicate 2): 11.9%
- Inhibition 3 ([1]; D1, replicate 3): 10.77%
- Inhibition 4 ([1]; D1, replicate 4): 4.78%
- Mean % ([2]; NET, mean inhibition): -0.13% and 6.71%
- Inhibition 1 ([2]; NET, replicate 1): 26.63% and -24.8%
- Inhibition 2 ([2]; NET, replicate 2): 1.57% and -7.07%
- Inhibition 3 ([2]; NET, replicate 3): -2.48% and 7.39%
- Inhibition 4 ([2]; NET, replicate 4): -26.22% and 51.32%
- Mean % ([3]; M1, mean inhibition): -5.74%
- Inhibition 1 ([3]; M1, replicate 1): 6.11%
- Inhibition 2 ([3]; M1, replicate 2): -4.99%
- Inhibition 3 ([3]; M1, replicate 3): -11.01%
- Inhibition 4 ([3]; M1, replicate 4): -13.08%
- Mean % ([4]; 5-HT5A, mean inhibition): 0.62% and -5.72%
- Inhibition 1 ([4]; 5-HT5A, replicate 1): 13.64% and 5.79%
- Inhibition 2 ([4]; 5-HT5A, replicate 2): -10.06% and -11.12%
- Inhibition 3 ([4]; 5-HT5A, replicate 3): -4.07% and -16.75%
- Inhibition 4 ([4]; 5-HT5A, replicate 4): 2.96% and -0.78%
- Mean % ([5]; Alpha1B, mean inhibition): -0.37%
- Inhibition 1 ([5]; Alpha1B, replicate 1): -2.21%
- Inhibition 2 ([5]; Alpha1B, replicate 2): 6.62%
- Inhibition 3 ([5]; Alpha1B, replicate 3): -2.78%
- Inhibition 4 ([5]; Alpha1B, replicate 4): -3.12%
- Mean % ([6]; 5-HT2A, mean inhibition): -5.29%
- Inhibition 1 ([6]; 5-HT2A, replicate 1): 5.24%
- Inhibition 2 ([6]; 5-HT2A, replicate 2): -8.74%
- Inhibition 3 ([6]; 5-HT2A, replicate 3): -13.01%
- Inhibition 4 ([6]; 5-HT2A, replicate 4): -4.63%
- Mean % ([7]; Alpha1D, mean inhibition): -12.86%
- Inhibition 1 ([7]; Alpha1D, replicate 1): -4.16%
- Inhibition 2 ([7]; Alpha1D, replicate 2): -21.92%
- Inhibition 3 ([7]; Alpha1D, replicate 3): -15.38%
- Inhibition 4 ([7]; Alpha1D, replicate 4): -9.98%
